# Source: patent US11479604B2, “Immunomodulatory peptides and methods for modulating the immune system in a subject” (Recepta Biopharma S.A., priority 2017, dated 2022)
# Positions of bridges follow the written chain, without caps; N, C: chain ends. No end group written: not given here.
# Legend:
# [1] = test system: B16F10-Nex2 melanoma cells; assay: Syngeneic metastatic melanoma model, lung nodule count; assay type: in vivo, C57BL/6 mice; settings: for antitumor activity (pulmonary nodules): alone, Rb9 300 μg 5 consecutive days, Imiquimod 50 μg 3 alternate days, CpG and Poly (I:C) two alternate days; for activity against metastatic melanoma of scramble peptides: 300 μg (10 mg/kg) i.p., alternate days, 5 doses, lungs after 14 days
# Method: Male C57BL/6 mice, 6 to 8-week-old were obtained from the Center for Development of Experimental Models (CEDEME), Federal University of Sao Paulo (UNIFESP). For the in vivo metastatic model, C57BL/6 mice received one intravenous (i.v.) injection of 2×10^5 viable B16-F10-Next melanoma cells in 100 μL. […] The control group received 100 μL PBS. Twenty-two days later, mice (minimum n=3 per group) had their lungs harvested, and the number of macroscopic melanotic nodules were counted. The Ethical Committee of Federal University of São Paulo, Project no. 1234, 2011, approved all experiments with animals, according to International guidelines. For the subcutaneous model, mice were injected with 5×10^5 tumor cells suspended in 100 μL of PBS in the right flank via the subcutaneous route. The peptide (300 μg) was solubilized in 10 μL of distilled H2O and 90 μL of PBS and injected per mouse via the intraperitoneal route. The administration of the peptide was performed in 5 alternate days initiating one day after tumor challenge. Tumor longitudinal diameter (D) and transverse diameter (d) were measured every 2 days until the tumor volume reached 3,000 mm3. Animals were sacrificed when the allowed volume was reached. Volume was calculated using the formula v=Dd^2×0.52. Tumor Cell Growth In Vitro and In Vivo Details of the in vitro tumor cell growth, cytotoxicity tests, determination of viable cells and in vivo protection experiments with B16F10 cells in a mouse metastatic model are described in Polonelli et al. (PLoS One. 3(6):e2371, 2008) and Dobroff et al. (Transl. Onc., 3: 204-217, 2010).
# 6 to 8 Week-old C57BL/6 mice (n=5, per group) were intravenously challenged with 1×10^5 of syngeneic B16F10-Nex2 viable cells in 0.1 mL of RPMI medium without FBS, and treated on the next day with intraperitoneal doses of 300 μg (10 mg/kg) each, of Scr1, Scr2, Scr3 or Scr4 peptide or with the control vehicle (PBS) in alternate days, total of 5 doses. After 14 days, mice were euthanized, and lungs were harvested and assessed for metastatic colonization. The number of metastatic lesions was quantified using a stereo microscope (Nikon, Tokyo). The percentage of the tumor area/total area was also quantified by ImageJ software.
# B16F10-Nex2 tumor cells (2×10^5) in RPMI (100 μl) were injected in both animal groups in the tail veins on day 0. Animals were sacrificed on day 22, or 10 days after the last administration of the peptide, and their lungs were examined for dark melanotic nodules.
# C57Bl6 mice were intravenously challenged with 4×10^5 syngeneic B16F10-Nex2 cells in 0.1 ml of RPMI without FBS.
# Mice were injected with 5×10^5 B16F10-Nex2 cells i.v. suspended in 100 μl PBS. […] Imiquimod at 50 μg/100 μl was injected i.p. in 3 alternate days; CpG ODN 1585, i.p., in two alternate days; and Poly (I:C), i.p., in two alternate days. After 15 days of tumor challenge, the animals were sacrificed, the lungs were removed and the pulmonary nodules were counted.
# [2] = test system: B16F10-Nex2 melanoma cells; assay: Prophylactic adoptive transfer of peptide-stimulated dendritic cells, metastatic melanoma; assay type: in vivo, syngeneic mice; settings: DCs incubated with 50 μg/ml peptide, with or without tumor cell lysate; s.c.; tumor challenge day 14, count day 29
# Method: DCs were obtained from the bone marrow of 6 to 8-week-old C57Bl6 mice. Briefly, femora and tibiae from mice were removed and stripped of muscles and tendons; both bone ends were cut, and bone marrow was extracted by placing the bone pieces into 1-ml tips, which in turn were inserted into 15-ml tubes and centrifuged for 10 minutes at 1500 rpm. Cells were resuspended in DMEM and cell clusters were dissociated by repeated pipetting. The total bone marrow cells were cultured in 100-mm treated tissue culture dish in 10 ml of R10 medium (DMEM medium supplemented with 2 mM glutamine, 10,000 U/ml penicillin, 10 mg/ml streptomycin, 50 μM 2-mercaptoethanol, 1 mM sodium pyruvate, MEM-nonessential aminoacids, MEM Vitamin solution, 10% heat-inactivated fetal bovine serum and GM-CSF (20 ng/ml) and IL-4 (40 ng/ml). Fresh medium (3 ml) with GM-CSF (200 ng/ml) and IL-4 (400 ng/ml) was added every 3 days. On day 7, adherent cells, that were harvested using PBS 2 mM EDTA, together with the non-adherent cells were pooled and used as the starting cell source for the experiments. BMDC Protocol 2
# DCs were inoculated s.c. in syngeneic mice. On day 14, mice were inoculated i.v. with melanoma tumor cells (5×10^5 cells) and on day 29, the lung melanotic nodules were counted.
# [3] = test system: LPS stimulated DCs characterized by CD11c+ MHC-II+; assay: Co-stimulatory markers of LPS stimulated murine bone-marrow DCs; assay type: cell-based
# Excerpt: Rb9 immunomodulation of murine bone-marrow dendritic cells (DCs) was also examined focusing on co-stimulatory markers.
# CD11c+ cells = assay: TGF-beta1 ELISA of CD11c+ cells from lymphoid organs of melanoma-bearing treated mice; assay type: in vivo, C57Bl6 mice; settings: 300 μg/dose i.p., day 17
# Method: Animals were sacrificed on day 17 and their lungs, cervical and axillary lymph nodes and spleen were processed for examination. Lymph nodes and spleen were macerated separately, DMEM was added and passed through a cell strainer. CD11c+ cells were isolated using mouse CD11c+ beads and magnetic sorting. Cells were suspended in R10 medium and plated in […] at 10^6 cells/well. Cells were incubated for 24 h with or without tumor cell lysate (B16F10 stimulus). The supernatant was used in a TGF-beta1 ELISA test.
# [4] = test system: T lymphocytes of lungs, spleen and lymph nodes; assay: Flow cytometry of Treg, T-CD4+ and T-CD8+ cells after prophylactic DC protocol; assay type: in vivo, mice; settings: spleen and lymph nodes (except lungs), day 29, DCs stimulated by peptide
# Method: On day 14, mice were inoculated i.v. with B16F10.Nex2 melanoma tumor cells and on day 29, lungs, spleen and cervical and axillary lymph nodes were examined for CD3+ cells, and the proportion of T-CD4+ and T-CD8+ cells.
# The lungs were incubated with 2 mg/ml of collagenase for 40 min at 37° C. before maceration. The cell suspension was incubated with cold hemolytic buffer for 1 min and then centrifuged. The pellet was suspended with RPMI medium and counted. 1×10^6 Cells of each group were processed and stained using the Treg Detection Kit (Miltenyi Biotec, Cambridge, USA). Lymphocytes were characterized using anti-CD4 (FITC), anti-CD25 (PE) and anti-Foxp3 (APC). Samples were analyzed by flow cytometry using FACSCantoII (Becton Dickinson, San Jose, Calif., USA). Acquired data were analyzed using the FlowJo V10 (TreeStar Inc., Ashland, Oreg., USA). The percentages of Foxp3^+ in CD4^+CD25^+ lymphocytes are indicated.
# The cell suspension was incubated with cold hemolytic buffer for 1 min and then centrifuged. The pellet was suspended with RPMI medium and counted. 1×10^6 Cells of each group were stained with anti-CD3 (PE) and anti-CD4 (FITC) or anti-CD3 (PE) and anti-CD8 (FITC). All antibodies used were purchase from Miltenyi Biotec, Cambridge, USA. Samples were analyzed by flow cytometry using FACSCantoII (Becton Dickinson, San Jose, Calif., USA). Acquired data were analyzed using the FlowJo V10 (TreeStar Inc., Ashland, Oreg., USA). The percentages of CD4^+ or CD8^+ in CD3^+ lymphocytes are indicated.
# splenocytes = assay: Splenocyte cytokine production in melanoma-bearing treated mice (ELISA); assay type: in vivo; settings: 300 μg i.p. 5 consecutive days
# Method: Mice were challenged with 5×10^5 B16F10-Nex2 cells via the i.v. route. […] Peptides at 300 μg solubilized in 10 μl distilled H2O and 90 μl of PBS were injected via i.p. route per animal, for 5 consecutive days initiating one day after tumor cell challenge. Seventeen days after tumor challenge mice were sacrificed and spleens were removed. Splenocytes after incubation in hemolysis buffer were suspended in R10 medium and plated in 6-well plates and 10^6 cells/well. Cells were incubated for 72 h with or without tumor cell lysate (from 10^5 B16F10-Nex2 cells) in triplicate. The supernatants were collected, and cytokines measured by ELISA (FIG. 11).
# [5] = test system: colorectal CT26 carcinoma cells; assay: Subcutaneous syngeneic colorectal carcinoma model; assay type: in vivo, Balb/c mice
# [6] = test system: CD11c+, MHC II+ bone marrow DCs; assay: Marker expression of bone marrow DCs with or without Poly I:C (flow cytometry); assay type: cell-based, C57Bl6 mice; settings: 60 h
# Method: DCs were obtained from the bone marrow of 6 to 8-week-old C57Bl6 mice. Briefly, femora and tibiae from mice were removed and stripped of muscles and tendons; both bone ends were cut and bone marrow was flushed out with RPMI 1640 medium using a 21-gauge needle and syringe. Cell clusters were dissociated by passing through a cell strainer and 0.45 M ammonium chloride was added for red cell lysis. After washing the cell suspension twice in RPMI 1640, 10×10^6 bone marrow cells per well were cultured in non-treated tissue-culture 6-well plates with 4 ml of complete medium (RPMI 1640 supplemented with 2 mM glutamine, 10,000 U/mL penicillin, 10 mg/mL streptomycin, 50 μM 2-mercaptoethanol, 10% heat-inactivated fetal calf serum with GM-CSF (50 ng/ml). Half of the medium was removed on day 2 and new medium supplemented with GM-CSF (100 ng/ml) and warmed at 37° C. was added. The culture medium was entirely discarded on day 3 and replaced by fresh warmed medium with GM-CSF (50 ng/ml). On day 6, non-adherent cells in the culture supernatant and loosely adherent cells harvested by gentle washing with PBS were pooled and used as the starting cell source for the experiments.
# For murine cell analysis, these were stained in ice-cold PBS containing BSA (0.5%) and EDTA (2 mM) using appropriate antibody-fluorophore conjugates. Multiparameter analysis was performed on a BD FACSCanto II analyzer (BD Biosciences) and analyzed with FlowJo software (Tree Star). The following antibodies were used: anti-MHC Class II, anti-CD11c, anti-CD8a, anti-CD3e, anti-CD4, anti-CD86, anti-CD40, anti-CD80, Prior to acquisition, cells were resuspended in PBS/BSA 0.5%/EDTA (2 mM).
# DCs were centrifuged and washed once with MACS buffer. Cells (10^6) were resuspended in 45 μl of buffer and 5 μl of antibodies/fluorophore, CD11c APC, MHC II PE, CD80 FITC, CD86 VioBlue and CD40 PE. The samples were acquired in BD FACS Canto II using the FacsDiva software. The data were analyzed by using the FlowJo software.
# [7] = 100 μg/ml peptide + 12.5 μg/ml Poly I:C
compound,measurement,setting,value
"CC(C)Cn1cnc2c(N)nc3ccccc3c21 [Imiquimod, reference compound]",antitumor activity (pulmonary nodules),"[1]; i.p., 15 days after challenge",Antitumor activities of Rb9 and Imiquimod were the same
Poly I:C [reference compound],antitumor activity (pulmonary nodules),"[1]; i.p., 15 days after challenge",strongly active
same,antitumor activity of Poly I:C combined with Rb9,"[1]; i.p., 15 days after challenge",strongly active
"[AARGETARATFAYWGQG], NH2 [Rb10A1]",protective effect of peptide-stimulated DCs (lung melanotic nodules),[2],also protective against melanoma in the metastatic model but less effectively than Rb9
same,CD40 expression,[3],regulated CD40 expression
same,expression of CD80 and CD86,[3]; Rb9 mainly at 50 μg/ml,significantly stimulated
same,TGF-beta in tumor-lysate stimulated CD11c+ cells from the spleen,CD11c+ cells,markedly inhibited
same,TGF-beta secreted by lymph node CD11c+ cells,CD11c+ cells; vs vehicle (PBS) control cells stimulated by melanoma lysate,fully inhibited
same,proportion of T-CD8+ to T-CD4+ cells,[4],T-CD8+ cells greatly predominated over T-CD4+ effector cells
same,cytokine production in splenocytes (generally),splenocytes,downregulated
same,IL-12 production in splenocytes,splenocytes; no stimulus necessary,comparable in the three groups
"[CAEATYWRRGGQAAGFTC], NH2 (C-C) (CAEATYWRRGGQAAGFTC-NH2; disulfide 1-18 (inferred)) [Scr1, cyclic scramble peptide of Rb9]",activity against metastatic melanoma of scramble peptides,[1],activity similar to Rb9
"[CARGETARATFAYWGQG], NH2 (CARGETARATFAYWGQG-NH2) [Rb10, linear peptide lacking terminal cysteine]",subcutaneous tumor growth,"[5]; CT26 cells of high virulence (Argentina cell line), 5 alternate days",delayed
same,survival time,"[5]; CT26 cells of high virulence, H-2^d syngeneic animals",prolonging the survival time
"[CETWRGAATRGAFQAYGC], NH2 (C-C) (CETWRGAATRGAFQAYGC-NH2; disulfide 1-18 (inferred)) [Scr3, cyclic scramble peptide of Rb9]",activity against metastatic melanoma of scramble peptides,[1],good negative control
"[RATFAYWG], NH2 [Rb9-MID]",CD40 expression over Poly I:C,[6]; [7],stimulated CD40 over Poly I:C much like Rb9
same,expression of MHC II over Poly I:C and Rb9,[6]; [7],significantly increased
same,expression of CD80,"[6]; 100 μg/ml peptide, with or without Poly I:C",similar
